Test results taken from patent US12310973B2, “Administration and dosage of diaminophenothiazines” (WisTa Laboratories Ltd., priority 2016, dated 2025).

Tested on: mild to moderate AD patients
Experiment: Phase 3 trial in mild to moderate AD: MRI volumetry (LVV, TPV, HV)
Type: in vivo, human
Conditions: for HV, Estimate (difference vs control) / LVV, Estimate (difference vs control) / TPV, Estimate (difference vs control): Table 5
Source text: The co-primary efficacy outcomes were change from baseline in 11-item Alzheimer's Disease Assessment Scale—cognitive subscale (ADAS-cog) and the 23-item Alzheimer's Disease Cooperative Study Activities of Daily Living (ADCS-ADL). Magnetic resonance imaging (MRI) volumetry was chosen as the principal secondary outcome to support a potential effect on the rate of brain atrophy (Fox et al., 1997; Ridha et al., 2008). Change in Lateral Ventricular Volume (LVV), as measured by the Ventricular Boundary Shift Integral (VBSI), (Salloway et al., 2014) was chosen as the principal measure as it provides high-contrast boundaries for measurement and is less affected by motion artefacts than whole brain or smaller structures. Key supportive topographical measures (temporo-parietal (TPV) and hippocampal volume (HV)) are also reported.
ADAS-cog and ADCS-ADL assessments were performed at baseline and every 13 weeks thereafter, with change at 65 weeks (the final on-treatment visit) the primary efficacy measures. These were repeated at the final off-treatment follow-up visit at Week 69. Secondary efficacy measures included Clinical Global Impression of Change (ADCS-CGIC, administered by an independent rater); MMSE, administered on screening and at Weeks 26, 52, 65 and 69. Brain MRI scans were performed at baseline/screening and every 13 weeks using a standardized protocol including volumetric 3D T1-weighted data consistent with ADNI recommendations, FLAIR, T2* Gradient Echo and T2-weighted sequences. Diffusion-Weighted Imaging was also available at screening in order to exclude patients with co-existing pathology that would lead to a diagnosis other than probable AD. Each site was first qualified ensuring standardised acquisition protocol, patient handling and data management. MRI data were centrally collected by Imaging Corelab (Bioclinica). Data were centrally reviewed by RadMD for eligibility and safety (Amyloid Related Imaging Abnormalities, or ARIA monitoring) on an on-going basis. Volumetric 3DT1 data were also reviewed centrally in order to measure (using a boundary shift integral (BSI) technique; Salloway et al., 2014) change in LVV as principal secondary outcome measure, and as exploratory endpoints temporo-parietal volume (TPV), whole brain volume (WBV) and hippocampal volume (HV, estimated as the mean of left and right) (Wischik et al., 2016). Additional exploratory endpoints included change in glucose uptake in the temporal lobe, assessed using ^18F-fluorodeoxyglucose positron emission tomography (FDG-PET) performed during screening and at Weeks 39 and 65 in a subset of patients in sites with this imaging capability. Changes in cerebrospinal fluid biomarkers of Alzheimer's disease, including total tau, phospho-tau and amyloid-β1-42, were explored using cerebrospinal fluid samples that were collected at baseline and Week 65 (or early termination visit). Lumbar punctures were performed only in subjects who were themselves able to provide consent specifically for this procedure.
The primary efficacy analyses of change from baseline in ADAS-cog and ADCS-ADL scores were conducted in the modified intent-to-treat (mITT) population (all randomised patients who took at least one dose of study treatment and had at least one post-baseline, on-treatment efficacy assessment). The primary analysis was specified as a mixed model repeated-measures (MMRM) analysis with an unstructured covariance matrix and no imputation for missing data. The model included categorical visit (5 levels corresponding to assessments at weeks 13, 26, 39, 52 and 65), treatment (3 levels corresponding to control, 75 mg b.i.d. and 125 mg b.i.d.), treatment-by-visit interaction, and the stratification variables as additive terms, and baseline ADAS-cog or ADCS-ADL as a covariate. A similar exploratory analysis was specified in the Statistical Analysis Plan (SAP) with the AChEI/Mem covariate as an interaction term with treatment and as an interaction term with visit. […]

[1] = Table 5, AChEI/Mem as interaction term, control arm (4 mg b.i.d.)
[2] = Table 6 post-hoc, control-arm subjects, 4 mg b.i.d. + AChEI/Mem
[3] = Table 6 post-hoc, 4 mg b.i.d. alone vs 4 mg b.i.d. + AChEI/Mem
[4] = Table 7, mild AD, 4 mg b.i.d. + AChEI/Mem (control-arm subjects)
[5] = Table 7, mild AD, 4 mg b.i.d. alone vs 4 mg b.i.d. + AChEI/Mem
[6] = Table 7, mild AD, 75 mg b.i.d. alone vs control arm as randomised
[7] = Table 7, mild AD, 125 mg b.i.d. alone vs control arm as randomised
[8] = Table 7, mild AD, control arm as randomised (4 mg b.i.d.)
[9] = Table 7, moderate AD, 4 mg b.i.d. + AChEI/Mem (control-arm subjects)
[10] = Table 7, moderate AD, 4 mg b.i.d. alone vs 4 mg b.i.d. + AChEI/Mem
[11] = Table 7, moderate AD, 75 mg b.i.d. alone vs control arm as randomised
[12] = Table 7, moderate AD, 125 mg b.i.d. alone vs control arm as randomised
[13] = Table 7, moderate AD, control arm as randomised (4 mg b.i.d.)

CN(C)c1ccc2c(c1)Sc1cc(N(C)C)ccc1N2 [LMTM, leuco-methythioninium bis(hydromethanesulfonate)]
Increase in TPV relative to control (75 mg b.i.d. monotherapy): 31%±8% | Reduction in LVV (progression of atrophy) relative to control (75 mg b.i.d. monotherapy): 38%±9% | Increase in TPV relative to control (125 mg b.i.d. monotherapy): 26%±8% | Reduction in LVV (progression of atrophy) relative to control (125 mg b.i.d. monotherapy): 33%±9% | HV, Estimate (change from baseline) [1]: −115.3 mm^3 | LVV, Estimate (change from baseline) [1]: 7,187 mm^3 | TPV, Estimate (change from baseline) [1]: −1529 mm^3 | HV, Estimate (difference vs control) (75 mg b.i.d. + AChEI/Mem): −2.0 mm^3 | LVV, Estimate (difference vs control) (75 mg b.i.d. + AChEI/Mem): −273 mm^3 | TPV, Estimate (difference vs control) (75 mg b.i.d. + AChEI/Mem): −39 mm^3 | HV, Estimate (difference vs control) (75 mg b.i.d. monotherapy): 9.5 mm^3 | LVV, Estimate (difference vs control) (75 mg b.i.d. monotherapy): −2,707 mm^3 | TPV, Estimate (difference vs control) (75 mg b.i.d. monotherapy): 472 mm^3 | HV, Estimate (difference vs control) (125 mg b.i.d. + AChEI/Mem): −7.4 mm^3 | LVV, Estimate (difference vs control) (125 mg b.i.d. + AChEI/Mem): −306 mm^3 | TPV, Estimate (difference vs control) (125 mg b.i.d. + AChEI/Mem): −12 mm^3 | HV, Estimate (difference vs control) (125 mg b.i.d. monotherapy): 20.0 mm^3 | LVV, Estimate (difference vs control) (125 mg b.i.d. monotherapy): −2,347 mm^3 | TPV, Estimate (difference vs control) (125 mg b.i.d. monotherapy): 405 mm^3 | HV, Estimate (change from baseline) [2]: −117.8 mm^3 | LVV, Estimate (change from baseline) [2]: 7,426 mm^3 | TPV, Estimate (change from baseline) [2]: −1,596 mm^3 | HV, Estimate (difference) [3]: 19.5 mm^3 | LVV, Estimate (difference) [3]: −1,894 mm^3 | TPV, Estimate (difference) [3]: 534 mm^3 | HV, Estimate (change from baseline) [4]: −119.5 mm^3 | LVV, Estimate (change from baseline) [4]: 6,167 mm^3 | TPV, Estimate (change from baseline) [4]: −1,398 mm^3 | HV, Estimate (difference) [5]: 46.7 mm^3 | LVV, Estimate (difference) [5]: −2,655 mm^3 | TPV, Estimate (difference) [5]: 722 mm^3 | HV, Estimate (difference) [6]: 16.9 mm^3 | LVV, Estimate (difference) [6]: −2,549 mm^3 | TPV, Estimate (difference) [6]: 392 mm^3 | HV, Estimate (difference) [7]: 40.5 mm^3 | LVV, Estimate (difference) [7]: −2,695 mm^3 | TPV, Estimate (difference) [7]: 439 mm^3 | HV, Estimate (change from baseline) [8]: −115.8 mm^3 | LVV, Estimate (change from baseline) [8]: 5,789 mm^3 | TPV, Estimate (change from baseline) [8]: −1,309 mm^3 | HV, Estimate (change from baseline) [9]: −116.6 mm^3 | LVV, Estimate (change from baseline) [9]: 8,143 mm^3 | TPV, Estimate (change from baseline) [9]: −1,697 mm^3 | HV, Estimate (difference) [10]: −2.4 mm^3 | LVV, Estimate (difference) [10]: −940 mm^3 | TPV, Estimate (difference) [10]: 370 mm^3 | HV, Estimate (difference) [11]: 3.6 mm^3 | LVV, Estimate (difference) [11]: −2,251 mm^3 | TPV, Estimate (difference) [11]: 469 mm^3 | HV, Estimate (difference) [12]: 2.2 mm^3 | LVV, Estimate (difference) [12]: −1,703 mm^3 | TPV, Estimate (difference) [12]: 293 mm^3 | HV, Estimate (change from baseline) [13]: −116.9 mm^3 | LVV, Estimate (change from baseline) [13]: 8,023 mm^3 | TPV, Estimate (change from baseline) [13]: −1,649 mm^3 | Hippocampus volume benefit (increase) (mild patients, LMTM monotherapy): 35.5 mm^3
